Laboratory results: the SangsterLogP compilation

assay: method code SF-AS, from DOI: 10.1111/j.1399-3011.1986.tb03252.x; conditions: pH 7.0

Row | SMILES | logD
1 | CC(=O)NC(C)(C)C(N)=O | -0.87
2 | C=CCC(CC=C)(NC(C)=O)C(N)=O | 0.05
3 | CC(=O)NC(Cc1ccccc1)(Cc1ccccc1)C(N)=O | 2.09
4 | CC(=O)NCC(N)=O | -1.68
5 | CCCC(CCC)(NC(C)=O)C(N)=O | 0.75

Second part, the compound after the results:

Row | logD | SMILES
6 | -0.45 | CCCC(NC(C)=O)C(N)=O (stereo not drawn)
7 | -1.41 | CC(=O)NC(C)C(N)=O (stereo not drawn)
8 | -0.86 | C=CCC(NC(C)=O)C(N)=O (stereo not drawn)
